Reference: PMC7955127, “Preclinical small molecule WEHI-7326 overcomes drug resistance and elicits response in patient-derived xenograft models of human treatment-refractory tumors” (Cell Death & Disease, 2021)

Experiment: Acute toxicity study, single intravenous dose (non-GLP)
Type: in vivo, Sprague-Dawley rats
Conditions: for PT / Phosphate / Potassium / Protein (Total) / RBC / Retc. / Sodium / Triglycerides / Urea / WBC / Multifocal red petechiae on all lung lobes (incidence at necropsy) / Smaller right teste (incidence at necropsy) / Testes noted to have a soft consistency (incidence at necropsy) / White streaks though one or both testes (incidence at necropsy) / ALP / ALT / APTT / AST / Albumin / Albumin/Globulin / Bilirubin (Total) / Calcium / Chloride / Cholesterol / Creatinine / Globulin / Glucose / HCT / HGB / MCH / MCHC / MCV / PLT: day 15; for PT / Phosphate / Potassium / Protein (Total) / RBC / Retc. / Sodium / Triglycerides / Urea / WBC / ALP / ALT / APTT / AST / Albumin / Albumin/Globulin / Bilirubin (Total) / Calcium / Chloride / Cholesterol / Creatinine / Globulin / Glucose / HCT / HGB / MCH / MCHC / MCV / PLT: mean ± SD
Protocol: This acute toxicity study included a satellite group for toxicokinetic assessment. The toxicity study was comprised of 12 male and 12 female rats, which were allocated into four groups of three males and three females. The toxicity of the test substance, WEHI-7326 dihydrochloride (referred to as WEHI-7326 from here), was tested at three dose concentrations of 5 mg/kg, 15 mg/kg and 30 mg/kg administered as a single dose via intravenous tail vein injection. The vehicle control, D-(+)-Glucose, was formulated at 5% w/v and administered per the above regime. On Study Day 15, all animals were terminated with blood collected for biochemistry, haematology and coagulation analysis before undergoing gross necropsy by a US board certified veterinary pathologist. The toxicokinetic satellite group comprised of 30 male rats which were allocated into four groups of three males in the vehicle control group and nine males in each of the three treatment groups. All treatment group animals were then allocated into three subgroups (A, B and C) and bled pre-dose, then 2min, 10min, 0.5h, 2h, 6h, 12h and 24h post-dose. All vehicle control group animals weren’t allocated to a specific subgroup but were bled at 10min and 12h post-dose. All TK animals were then terminated after the final blood collection. Dosing was suspended on Study Day 1 for both the Toxicity and Toxicokinetic Study animals following adverse reactions which lead to the early termination of two animals (one male treated with mid-dose WEHI-7326 from the Toxicity Study and one male treated with high-dose WEHI-7326 from the Toxicokinetic Study) approximately 5-10 minutes post-treatment. After consultation with the Sponsor, the following changes were made to the Study Design:
At the revised high dose of 20mg/kg, all male rats had to be terminated prematurely also due to reaching their body weight loss endpoint of >10% loss. […] Significant findings in clinical pathology outcomes were considered incidental and unrelated to test article treatment. The majority of macroscopic findings at necropsy were also considered to be incidental, however the findings of white streaks through the testes of male animals treated with WEHI-7326 may be related to treatment. Body weights were measured once prior to dose administration, then daily for the duration of the study and at termination. Clinical observations were performed on a daily basis.
The study followed test guideline OECD No. 420 (2001) “Acute Oral Toxicity - Fixed Dose Procedure” with the exception that the route of administration was intravenous (i.v.).

[1] = female rats, 20 mg/kg single i.v.
[2] = male rats, 15 mg/kg single i.v.
[3] = male rats, 20 mg/kg single i.v.

**Q.** Which PT [1] does the source give for COc1ccc(CNc2nc(NCc3ccc(CN)cc3)nc(NN3CC(=O)NC3=O)n2)cc1 [WEHI-7326] here?
**A.** 21.8 ± 0.8 s

**Q.** And the Phosphate [1]?
**A.** 1.85 ± 0.15 mM

**Q.** What about the Potassium [1] of the same compound?
**A.** 4.72 ± 0.20 mM

**Q.** And the “Protein (Total)” value [1]?
**A.** 64.3 ± 1.2 g/L

**Q.** What about the RBC [1] of the same compound?
**A.** 7.27 ± 0.15 10^12/L

**Q.** And the Retc. [1]?
**A.** 4.75 ± 1.82%

**Q.** What about the Sodium [1] of the same compound?
**A.** 139 ± 1 mM

**Q.** And the Triglycerides [1]?
**A.** 0.96 ± 0.50 mM

**Q.** What about the Urea [1] of the same compound?
**A.** 6.37 ± 0.39 mM

**Q.** What about the WBC [1] of the same compound?
**A.** 7.85 ± 1.07 10^9/L

**Q.** What about the “Body weight loss >10% (termination required) (incidence)” value (male rats, 5 mg/kg single i.v.) of the same compound?
**A.** 0/3

**Q.** What about the “Discharge from nose on study day 2 (incidence)” value (“Discharge from nose” for short) (male rats, 5 mg/kg single i.v.) of the same compound?
**A.** 0/3

**Q.** What about the “Hunched posture with half shut eyes on Study Day 3 (incidence)” value (from here on “Hunched posture with half shut eyes”) (male rats, 5 mg/kg single i.v.) of the same compound?
**A.** 0/3

**Q.** And the “Labored breathing, severely affected gait and lack of response to stimuli post-dose (termination required) (incidence)” value (from here on “Labored breathing”) (male rats, 5 mg/kg single i.v.)?
**A.** 0/3

**Q.** What about the “Mild impairment of gait and lack of response to stimuli postdose, resolved 2 hours post treatment (incidence)” value (“Mild impairment” below) (male rats, 5 mg/kg single i.v.) of the same compound?
**A.** 0/3

**Q.** And the “No remarkable observations (incidence)” value (male rats, 5 mg/kg single i.v.)?
**A.** 3/3

**Q.** And the “Red stained right eye on study day 2 and 3 (incidence)” value (shortened to “Red stained right eye”) (male rats, 5 mg/kg single i.v.)?
**A.** 0/3

**Q.** And the “Multifocal red petechiae on all lung lobes (incidence at necropsy)” value (“Multifocal red petechiae” for short) (male rats, 5 mg/kg single i.v.)?
**A.** 0/3

**Q.** And the “Smaller right teste (incidence at necropsy)” value (“Smaller right teste” for short) (male rats, 5 mg/kg single i.v.)?
**A.** 1/3

**Q.** What about the “Testes noted to have a soft consistency (incidence at necropsy)” value (“Testes noted to have a soft consistency” below) (male rats, 5 mg/kg single i.v.) of the same compound?
**A.** 0/3

**Q.** What about the “White streaks though one or both testes (incidence at necropsy)” value (shortened to “White streaks though one or both testes”) (male rats, 5 mg/kg single i.v.) of the same compound?
**A.** 3/3

**Q.** And the ALP (male rats, 5 mg/kg single i.v.)?
**A.** 528 ± 112 U/L

**Q.** What about the ALT (male rats, 5 mg/kg single i.v.) of the same compound?
**A.** 66 ± 17 U/L

**Q.** And the APTT (male rats, 5 mg/kg single i.v.)?
**A.** 16.8 ± 1.3 s

**Q.** And the AST (male rats, 5 mg/kg single i.v.)?
**A.** 114 ± 16 U/L

**Q.** What about the Albumin (male rats, 5 mg/kg single i.v.) of the same compound?
**A.** 36.6 ± 4.1 g/L

**Q.** What about the Albumin/Globulin (male rats, 5 mg/kg single i.v.) of the same compound?
**A.** 1.4 ± 0.2 Ratio

**Q.** What about the “Bilirubin (Total)” value (male rats, 5 mg/kg single i.v.) of the same compound?
**A.** 0.4 ± 0.1 µM

**Q.** And the Calcium (male rats, 5 mg/kg single i.v.)?
**A.** 2.67 ± 0.12 mM

**Q.** What about the Chloride (male rats, 5 mg/kg single i.v.) of the same compound?
**A.** 102.9 ± 5.3 mM

**Q.** What about the Cholesterol (male rats, 5 mg/kg single i.v.) of the same compound?
**A.** 1.81 ± 0.18 mM

**Q.** And the Creatinine (male rats, 5 mg/kg single i.v.)?
**A.** 25 ± 5 µM

**Q.** And the Globulin (male rats, 5 mg/kg single i.v.)?
**A.** 25.3 ± 1.6 g/L

**Q.** What about the Glucose (male rats, 5 mg/kg single i.v.) of the same compound?
**A.** 7.70 ± 0.82 mM

**Q.** What about the HCT (male rats, 5 mg/kg single i.v.) of the same compound?
**A.** 0.52 ± 0.01 L/L

**Q.** And the HGB (male rats, 5 mg/kg single i.v.)?
**A.** 151.7 ± 3.1 g/L

**Q.** And the MCH (male rats, 5 mg/kg single i.v.)?
**A.** 19.70 ± 0.85 pg

**Q.** And the MCHC (male rats, 5 mg/kg single i.v.)?
**A.** 294.0 ± 5.0 g/L

**Q.** And the MCV (male rats, 5 mg/kg single i.v.)?
**A.** 67.2 ± 3.5 fL

**Q.** What about the PLT (male rats, 5 mg/kg single i.v.) of the same compound?
**A.** 1025.0 ± 167.5 10^9/L

**Q.** And the PT (male rats, 5 mg/kg single i.v.)?
**A.** 19.5 ± 0.3 s

**Q.** And the Phosphate (male rats, 5 mg/kg single i.v.)?
**A.** 2.07 ± 0.24 mM

**Q.** And the Potassium (male rats, 5 mg/kg single i.v.)?
**A.** 5.23 ± 0.33 mM

**Q.** What about the “Protein (Total)” value (male rats, 5 mg/kg single i.v.) of the same compound?
**A.** 61.9 ± 5.8 g/L

**Q.** And the RBC (male rats, 5 mg/kg single i.v.)?
**A.** 7.71 ± 0.45 10^12/L

**Q.** And the Retc. (male rats, 5 mg/kg single i.v.)?
**A.** 4.57 ± 1.00%

**Q.** What about the Sodium (male rats, 5 mg/kg single i.v.) of the same compound?
**A.** 143 ± 10 mM

**Q.** And the Triglycerides (male rats, 5 mg/kg single i.v.)?
**A.** 1.65 ± 0.18 mM

**Q.** And the Urea (male rats, 5 mg/kg single i.v.)?
**A.** 6.11 ± 0.96 mM

**Q.** What about the WBC (male rats, 5 mg/kg single i.v.) of the same compound?
**A.** 14.83 ± 1.08 10^9/L

**Q.** And the “Body weight loss >10% (termination required) (incidence)” value [2]?
**A.** 2/4

**Q.** And the “Discharge from nose” value [2]?
**A.** 0/4

**Q.** What about the “Hunched posture with half shut eyes” value [2] of the same compound?
**A.** 0/4

**Q.** What about the “Labored breathing” value [2] of the same compound?
**A.** 1/4

**Q.** And the “Mild impairment” value [2]?
**A.** 0/4

**Q.** What about the “No remarkable observations (incidence)” value [2] of the same compound?
**A.** 1/4

**Q.** What about the “Red stained right eye” value [2] of the same compound?
**A.** 1/4

**Q.** What about the “Multifocal red petechiae” value [2] of the same compound?
**A.** 0/1

**Q.** And the “Smaller right teste” value [2]?
**A.** 0/1

**Q.** And the “Testes noted to have a soft consistency” value [2]?
**A.** 1/1

**Q.** And the “White streaks though one or both testes” value [2]?
**A.** 1/1

**Q.** And the ALP [2]?
**A.** 306 ± 0 U/L

**Q.** And the ALT [2]?
**A.** 61 ± 0 U/L

**Q.** What about the APTT [2] of the same compound?
**A.** 20.2 ± 0.0 s

**Q.** And the AST [2]?
**A.** 108 ± 0 U/L

**Q.** What about the Albumin [2] of the same compound?
**A.** 32.3 ± 0 g/L

**Q.** What about the Albumin/Globulin [2] of the same compound?
**A.** 1.3 ± 0 Ratio

**Q.** And the “Bilirubin (Total)” value [2]?
**A.** 0.9 ± 0 µM

**Q.** And the Calcium [2]?
**A.** 2.50 ± 0 mM

**Q.** And the Chloride [2]?
**A.** 100.4 ± 0 mM

**Q.** What about the Cholesterol [2] of the same compound?
**A.** 1.65 ± 0 mM

**Q.** And the Creatinine [2]?
**A.** 23 ± 0 µM

**Q.** And the Globulin [2]?
**A.** 25.8 ± 0 g/L

**Q.** What about the Glucose [2] of the same compound?
**A.** 7.13 ± 0 mM

**Q.** And the HCT [2]?
**A.** 0.46 ± 0.00 L/L

**Q.** What about the HGB [2] of the same compound?
**A.** 138.0 ± 0.0 g/L

**Q.** And the MCH [2]?
**A.** 18.00 ± 0.00 pg

**Q.** And the MCHC [2]?
**A.** 297.0 ± 0.0 g/L

**Q.** And the MCV [2]?
**A.** 60.40 ± 0.0 fL

**Q.** And the PLT [2]?
**A.** 1075 ± 0.0 10^9/L

**Q.** What about the PT [2] of the same compound?
**A.** 18.4 ± 0.0 s

**Q.** What about the Phosphate [2] of the same compound?
**A.** 2.07 ± 0 mM

**Q.** And the Potassium [2]?
**A.** 4.78 ± 0 mM

**Q.** What about the “Protein (Total)” value [2] of the same compound?
**A.** 58.1 ± 0 g/L

**Q.** And the RBC [2]?
**A.** 7.68 ± 0.00 10^12/L

**Q.** What about the Retc. [2] of the same compound?
**A.** 2.70 ± 0.00%

**Q.** What about the Sodium [2] of the same compound?
**A.** 138 ± 0 mM

**Q.** And the Triglycerides [2]?
**A.** 0.97 ± 0 mM

**Q.** What about the Urea [2] of the same compound?
**A.** 4.02 ± 0 mM

**Q.** And the WBC [2]?
**A.** 10.89 ± 0.00 10^9/L

**Q.** What about the “Body weight loss >10% (termination required) (incidence)” value [3] of the same compound?
**A.** 3/3

**Q.** And the “Discharge from nose” value [3]?
**A.** 3/3

**Q.** What about the “Hunched posture with half shut eyes” value [3] of the same compound?
**A.** 3/3

**Q.** And the “Labored breathing” value [3]?
**A.** 0/3

**Q.** What about the “Mild impairment” value [3] of the same compound?
**A.** 3/3

**Q.** And the “No remarkable observations (incidence)” value [3]?
**A.** 0/3

**Q.** What about the “Red stained right eye” value [3] of the same compound?
**A.** 0/3

**Q.** And the “Multifocal red petechiae” value [3]?
**A.** 0/0

**Q.** What about the “Smaller right teste” value [3] of the same compound?
**A.** 0/0

**Q.** What about the “Testes noted to have a soft consistency” value [3] of the same compound?
**A.** 0/0

**Q.** And the “White streaks though one or both testes” value [3]?
**A.** 0/0
